# Source: patent publication US9034868B2 (priority 2008, dated 2015)
# Entries after “also recorded” stand apart in the source; their conditions may differ.
# Key:
# TGN46 = format: cell-based, human
# CI-MPR = format: cell-based, human
# StxB [1] = format: cell-based, human
# StxB [2] = format: cell-based; details: 20 μM, 45 min at 37° C.
# CTxB = format: cell-based; details: 20 μM
# StxB [3] = format: cell-based
# StxB [4] = format: cell-based; details: 20 μM, 30 min, 37° C.
# [5] = system: vesicular stomatitis virus G protein (VSVG); format: cell-based, human
# transferrin (Tf) = format: cell-based; details: 20 μM, 30 min, 37° C.
# StxB [6] = format: cell-based, human; remark: listed apart in the source
# 125I-EGF = format: cell-based, human
compound,measurement,setting,value
"CCC(=O)N1CC(=O)Nc2ccc(Br)cc2C1c1ccccc1 (stereo not drawn) [Compound 193, 7-bromo-5-phenyl-4-propionyl-4,5-dihydro-1H-benzo[e][1,4]diazepin-2(3H)-one]",steady-state localization and transport of TGN46,TGN46,similar; also recorded: not been observed a distinct inhibition; also recorded: did not observe a pronounced effect; also recorded: do not impact distinctly
same,steady-state localization of CI-MPR,CI-MPR,similar
same,amount of bound StxB on cells,StxB [1],not reduced
same,cellular localisation of STxB,StxB [2],accumulation
same,cellular localisation of CtxB,CTxB,accumulation
same,reduction of retrograde transport of STxB to the TGN,StxB [3],90%
same,"reduction of transport of StxB to the TGN, 4 h after internalization",StxB [3],50%
same,endocytosis of StxB,StxB [4],not altered
same,effect on protein biosynthesis,HeLa-cells,only minor
same,anterograde transport of GFP-VSVGts045,[5],not significantly reduced
same,endocytosis of transferrin (Tf),transferrin (Tf),not altered
same,inhibition of Stx cytotoxicity,Stx1 and Stx2,100 fold
same,apparent side effects,THP1-cells,did not cause any apparent side effects
same,retrograde transport of StxB to the TGN,StxB [6],stark reduction
same,effect on lysosomal degradation of 125I-EGF,125I-EGF,no effect
